Measured values as given in patent US10899793B2, “Melanocortin ligands and methods of use thereof” (priority 2016, dated 2021).
Square brackets hold non-standard residues; d marks the D form. Peptide text beside a SMILES is read from it. Bip = N[C@@H](Cc1ccc(-c2ccccc2)cc1)C(=O)O; dPhe(4-I) = N[C@H](Cc1ccc(I)cc1)C(=O)O; 2Nal = N[C@@H](Cc1ccc2ccccc2c1)C(=O)O; d2Nal = N[C@H](Cc1ccc2ccccc2c1)C(=O)O; Bta = N[C@@H](Cc1csc2ccccc12)C(=O)O; Tic = O=C(O)[C@@H]1Cc2ccccc2CN1

Tests used:
[1] = biological target: T1, mMC3R (Mus musculus, UniProt P33033); settings: Table 1; Schild analysis, pA2 = -Log(Ki); Full Agonist = full dose-response, No Activity = no shift in EC50
[2] = biological target: T2, mMC4R (Mus musculus, UniProt P56450); settings: for mMC4R Antagonist pA2 ± SEM: Table 1, Schild analysis, pA2 = -Log(Ki)
[3] = biological target: T1, mMC3R; assay: AlphaScreen cAMP agonist assay at mMC3R; settings: Table 1; @ 100 μM
[4] = biological target: mMC5R (Mus musculus, UniProt P41149); assay: AlphaScreen cAMP agonist assay at mMC5R; settings: read-out: percent of the NDP-MSH maximal positive control, Table 2
[5] = biological target: T2, mMC4R; assay: AlphaScreen cAMP agonist assay at mMC4R; settings: read-out: mMC4R Agonist, percent of the NDP-MSH maximal positive control
[6] = biological target: mMC1R (Mus musculus, UniProt Q01727); assay: AlphaScreen cAMP agonist assay at mMC1R; settings: Table 2; @ 100 μM
mMC1R, sequence (Q01727 whole entry): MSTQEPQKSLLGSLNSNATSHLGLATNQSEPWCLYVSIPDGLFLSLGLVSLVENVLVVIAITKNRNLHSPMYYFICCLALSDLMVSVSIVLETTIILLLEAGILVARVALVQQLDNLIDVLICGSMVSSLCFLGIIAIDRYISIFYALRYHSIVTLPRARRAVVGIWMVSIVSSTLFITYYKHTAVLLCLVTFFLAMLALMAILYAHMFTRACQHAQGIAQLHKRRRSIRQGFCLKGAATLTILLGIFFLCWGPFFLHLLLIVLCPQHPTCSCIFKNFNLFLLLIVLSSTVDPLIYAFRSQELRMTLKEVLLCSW

mMC5R, sequence (P41149 whole entry): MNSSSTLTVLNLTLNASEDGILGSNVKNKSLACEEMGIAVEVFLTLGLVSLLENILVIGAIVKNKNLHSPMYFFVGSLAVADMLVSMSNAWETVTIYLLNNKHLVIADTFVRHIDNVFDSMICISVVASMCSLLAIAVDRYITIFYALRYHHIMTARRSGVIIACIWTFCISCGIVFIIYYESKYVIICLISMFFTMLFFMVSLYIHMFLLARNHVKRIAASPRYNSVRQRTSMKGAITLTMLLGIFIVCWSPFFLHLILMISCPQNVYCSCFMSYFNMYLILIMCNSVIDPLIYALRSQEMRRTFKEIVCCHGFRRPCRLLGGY
T1 sequence (P33033 whole entry): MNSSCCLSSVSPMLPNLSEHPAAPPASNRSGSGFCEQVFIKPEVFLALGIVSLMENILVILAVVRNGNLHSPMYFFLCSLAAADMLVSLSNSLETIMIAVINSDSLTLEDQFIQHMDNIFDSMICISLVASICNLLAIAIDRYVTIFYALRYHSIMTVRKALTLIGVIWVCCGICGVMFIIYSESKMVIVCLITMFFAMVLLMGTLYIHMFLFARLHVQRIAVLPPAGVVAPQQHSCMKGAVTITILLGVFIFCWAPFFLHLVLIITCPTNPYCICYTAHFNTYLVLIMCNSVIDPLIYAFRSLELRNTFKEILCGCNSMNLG
T2 sequence (P56450 whole entry): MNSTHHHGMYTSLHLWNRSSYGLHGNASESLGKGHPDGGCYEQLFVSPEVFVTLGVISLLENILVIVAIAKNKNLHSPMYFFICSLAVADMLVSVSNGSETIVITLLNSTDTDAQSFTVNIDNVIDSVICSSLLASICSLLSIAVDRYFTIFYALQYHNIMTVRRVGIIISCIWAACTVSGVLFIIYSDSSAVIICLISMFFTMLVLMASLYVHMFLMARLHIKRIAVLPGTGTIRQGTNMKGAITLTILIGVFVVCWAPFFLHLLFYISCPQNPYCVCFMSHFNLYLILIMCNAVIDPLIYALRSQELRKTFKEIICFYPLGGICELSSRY

| Structure (SMILES) | mMC3R Antagonist pA2 ± SEM [1] | mMC4R Antagonist pA2 ± SEM [2] | activation at 100 µM [4] | activation at 100 µM [5] | mMC1R percent of the NDP-MSH maximal positive control [6] | mMC3R Agonist, percent of the NDP-MSH maximal positive control [3] | antagonist pA2 at the mMC4R [2] |
| --- | --- | --- | --- | --- | --- | --- | --- |
| CC(=O)N[C@@H](Cc1ccc2ccccc2c1)C(=O)N[C@@H](CCCNC(=N)N)C(=O)N[C@H](Cc1ccc(I)cc1)C(=O)N[C@@H](Cc1ccccc1)C(N)=O [SKY4-48-32, Ac-Nal(2′)-Arg-(pI)DPhe-Phe-NH2] (Ac-[2Nal]R[dPhe(4-I)]F-NH2) | No Activity | No Activity | 49% |  |  | 42% @ 100 μM |  |
| CC(=O)N[C@@H](Cc1csc2ccccc12)C(=O)N[C@@H](CCCNC(=N)N)C(=O)N[C@H](Cc1ccc(I)cc1)C(=O)N[C@@H](Cc1ccc2ccccc2c1)C(N)=O [SKY4-48-37, Ac-3Bal-Arg-(pI)DPhe-Nal(2′)-NH2] (Ac-[Bta]R[dPhe(4-I)][2Nal]-NH2) | No Activity | No Activity | 50% |  |  |  |  |
| CC(=O)N[C@@H](Cc1csc2ccccc12)C(=O)N[C@@H](CCCNC(=N)N)C(=O)N[C@H](Cc1ccc(I)cc1)C(=O)N1Cc2ccccc2C[C@H]1C(N)=O [SKY4-48-21, Ac-3Bal-Arg-(pI)DPhe-Tic-NH2] (Ac-[Bta]R[dPhe(4-I)][Tic]-NH2) | Full Agonist |  |  | 37% |  |  |  |
| CC(=O)N[C@H](Cc1ccc2ccccc2c1)C(=O)N[C@@H](CCCNC(=N)N)C(=O)N[C@H](Cc1ccc(I)cc1)C(=O)N[C@@H](Cc1ccc2ccccc2c1)C(N)=O [SKY5-146-5, Ac-DNal(2′)-Arg-(pI)DPhe-Nal(2′)-NH2] (Ac-[d2Nal]R[dPhe(4-I)][2Nal]-NH2) |  |  | 40% | 39% |  | 43% @ 100 μM |  |
| CC(=O)N[C@@H](Cc1c[nH]cn1)C(=O)N[C@@H](CCCNC(=N)N)C(=O)N[C@H](Cc1ccc(I)cc1)C(=O)N[C@H](Cc1ccc2ccccc2c1)C(N)=O [SKY4-48-43, Ac-His-Arg-(pI)DPhe-DNal(2′)-NH2] (Ac-HR[dPhe(4-I)][d2Nal]-NH2) | Full Agonist |  | 47% | 50% |  |  |  |
| CC(=O)N1Cc2ccccc2C[C@H]1C(=O)N[C@@H](CCCNC(=N)N)C(=O)N[C@H](Cc1ccc(I)cc1)C(=O)N1Cc2ccccc2C[C@H]1C(N)=O [SKY6-24-1, Ac-Tic-Arg-(pI)DPhe-Tic-NH2] (Ac-[Tic]R[dPhe(4-I)][Tic]-NH2) | Full Agonist |  |  | 36% |  |  |  |
| CC(=O)N[C@@H](Cc1ccc2ccccc2c1)C(=O)N[C@@H](CCCNC(=N)N)C(=O)N[C@H](Cc1ccc(I)cc1)C(=O)N[C@@H](Cc1ccc2ccccc2c1)C(N)=O [SKY4-48-40, Ac-Nal(2′)-Arg-(pI)DPhe-Nal(2′)-NH2] (Ac-[2Nal]R[dPhe(4-I)][2Nal]-NH2) | No Activity | No Activity | 45% |  |  | 39% @ 100 μM |  |
| CC(=O)N[C@H](Cc1ccc2ccccc2c1)C(=O)N[C@@H](CCCNC(=N)N)C(=O)N[C@H](Cc1ccc(I)cc1)C(=O)N[C@H](Cc1ccc2ccccc2c1)C(N)=O [SKY4-48-49, Ac-DNal(2′)-Arg-(pI)DPhe-DNal(2′)-NH2] (Ac-[d2Nal]R[dPhe(4-I)][d2Nal]-NH2) |  |  | 43% | 37% |  | 40% @ 100 μM |  |
| CC(=O)N[C@@H](Cc1c[nH]cn1)C(=O)N[C@@H](CCCNC(=N)N)C(=O)N[C@H](Cc1ccc(I)cc1)C(=O)N[C@@H](Cc1ccc2ccccc2c1)C(N)=O [SKY4-48-35, Ac-His-Arg-(pI)DPhe-Nal(2′)-NH2] (Ac-HR[dPhe(4-I)][2Nal]-NH2) |  |  |  | 35% |  | 57% @ 100 μM |  |
| CC(=O)N[C@H](Cc1ccc2ccccc2c1)C(=O)N[C@@H](CCCNC(=N)N)C(=O)N[C@H](Cc1ccc(I)cc1)C(=O)N[C@@H](Cc1ccc(-c2ccccc2)cc1)C(N)=O [SKY5-146-2, Ac-DNal(2′)-Arg-(pI)DPhe-Bip-NH2] (Ac-[d2Nal]R[dPhe(4-I)][Bip]-NH2) |  |  |  | 42% |  | 30% @ 100 μM | 6.6 |
| CC(=O)N[C@@H](Cc1ccc2ccccc2c1)C(=O)N[C@@H](CCCNC(=N)N)C(=O)N[C@H](Cc1ccc(I)cc1)C(=O)N1Cc2ccccc2C[C@H]1C(N)=O [SKY4-48-24, Ac-Nal(2′)-Arg-(pI)DPhe-Tic-NH2] (Ac-[2Nal]R[dPhe(4-I)][Tic]-NH2) | Full Agonist |  |  | 33% |  |  |  |

The next lines start with results.

| mMC3R Antagonist pA2 ± SEM [1] | mMC4R Antagonist pA2 ± SEM [2] | activation at 100 µM [4] | activation at 100 µM [5] | mMC1R percent of the NDP-MSH maximal positive control [6] | Structure (SMILES) | mMC3R Agonist, percent of the NDP-MSH maximal positive control [3] | antagonist pA2 at the mMC4R [2] |
| --- | --- | --- | --- | --- | --- | --- | --- |
| No Activity | No Activity | 21% |  |  | CC(=O)N1Cc2ccccc2C[C@H]1C(=O)N[C@@H](CCCNC(=N)N)C(=O)N[C@H](Cc1ccc(I)cc1)C(=O)N[C@@H](Cc1ccccc1)C(N)=O [SKY4-48-30, Ac-Tic-Arg-(pI)DPhe-Phe-NH2] (Ac-[Tic]R[dPhe(4-I)]F-NH2) |  |  |
| No Activity | No Activity | 55% |  |  | CC(=O)N[C@@H](Cc1ccc(-c2ccccc2)cc1)C(=O)N[C@@H](CCCNC(=N)N)C(=O)N[C@H](Cc1ccc(I)cc1)C(=O)N[C@H](Cc1ccc2ccccc2c1)C(N)=O [SKY4-48-44, Ac-Bip-Arg-(pI)DPhe-DNal(2′)-NH2] (Ac-[Bip]R[dPhe(4-I)][d2Nal]-NH2) | 32% @ 100 μM |  |
| No Activity | No Activity |  | 24% |  | CC(=O)N[C@@H](Cc1ccc(-c2ccccc2)cc1)C(=O)N[C@@H](CCCNC(=N)N)C(=O)N[C@H](Cc1ccc(I)cc1)C(=O)N[C@@H](Cc1ccc(-c2ccccc2)cc1)C(N)=O [SKY4-48-4, Ac-Bip-Arg-(pI)DPhe-Bip-NH2] (Ac-[Bip]R[dPhe(4-I)][Bip]-NH2) |  |  |
| No Activity | No Activity |  | 43% |  | CC(=O)N[C@@H](Cc1c[nH]cn1)C(=O)N[C@@H](CCCNC(=N)N)C(=O)N[C@H](Cc1ccc(I)cc1)C(=O)N[C@@H](Cc1ccc(-c2ccccc2)cc1)C(N)=O [SKY4-48-3, Ac-His-Arg-(pI)DPhe-Bip-NH2] (Ac-HR[dPhe(4-I)][Bip]-NH2) | 53% @ 100 μM |  |
| Full Agonist |  |  |  | 38% @ 100 μM | CC(=O)N1Cc2ccccc2C[C@H]1C(=O)N[C@@H](CCCNC(=N)N)C(=O)N[C@H](Cc1ccc(I)cc1)C(=O)N[C@@H](Cc1csc2ccccc12)C(N)=O [SKY4-48-14, Ac-Tic-Arg-(pI)DPhe-3Bal-NH2] (Ac-[Tic]R[dPhe(4-I)][Bta]-NH2) |  |  |
| Full Agonist |  |  | 45% |  | CC(=O)N[C@H](Cc1ccc2ccccc2c1)C(=O)N[C@@H](CCCNC(=N)N)C(=O)N[C@H](Cc1ccc(I)cc1)C(=O)N[C@@H](Cc1csc2ccccc12)C(N)=O [SKY4-48-17, Ac-DNal(2′)-Arg-(pI)DPhe-3Bal-NH2] (Ac-[d2Nal]R[dPhe(4-I)][Bta]-NH2) |  |  |
| No Activity | No Activity | 74% | 33% |  | CC(=O)N1Cc2ccccc2C[C@H]1C(=O)N[C@@H](CCCNC(=N)N)C(=O)N[C@H](Cc1ccc(I)cc1)C(=O)N[C@H](Cc1ccc2ccccc2c1)C(N)=O [SKY4-48-46, Ac-Tic-Arg-(pI)DPhe-DNal(2′)-NH2] (Ac-[Tic]R[dPhe(4-I)][d2Nal]-NH2) | 42% @ 100 μM |  |
| No Activity | No Activity |  |  | 39% @ 100 μM | CC(=O)N1Cc2ccccc2C[C@H]1C(=O)N[C@@H](CCCNC(=N)N)C(=O)N[C@H](Cc1ccc(I)cc1)C(=O)N[C@@H](Cc1ccc(-c2ccccc2)cc1)C(N)=O [SKY5-146-1, Ac-Tic-Arg-(pI)DPhe-Bip-NH2] (Ac-[Tic]R[dPhe(4-I)][Bip]-NH2) |  |  |
| No Activity | No Activity | 52% |  |  | CC(=O)N[C@@H](Cc1ccccc1)C(=O)N[C@@H](CCCNC(=N)N)C(=O)N[C@H](Cc1ccc(I)cc1)C(=O)N[C@@H](Cc1ccccc1)C(N)=O [SKY4-48-31, Ac-Phe-Arg-(pI)DPhe-Phe-NH2] (Ac-FR[dPhe(4-I)]F-NH2) | 50% @ 100 μM |  |
| No Activity | No Activity |  | 35% |  | CC(=O)N[C@@H](Cc1csc2ccccc12)C(=O)N[C@@H](CCCNC(=N)N)C(=O)N[C@H](Cc1ccc(I)cc1)C(=O)N[C@@H](Cc1ccc(-c2ccccc2)cc1)C(N)=O [SKY4-48-5, Ac-3Bal-Arg-(pI)DPhe-Bip-NH2] (Ac-[Bta]R[dPhe(4-I)][Bip]-NH2) | 51% @ 100 μM |  |
| No Activity | No Activity | 35% |  |  | CC(=O)N[C@@H](Cc1csc2ccccc12)C(=O)N[C@@H](CCCNC(=N)N)C(=O)N[C@H](Cc1ccc(I)cc1)C(=O)N[C@@H](Cc1ccccc1)C(N)=O [SKY5-146-4, Ac-3Bal-Arg-(pI)DPhe-Phe-NH2] (Ac-[Bta]R[dPhe(4-I)]F-NH2) | 37% @ 100 μM |  |
